Experimental data: patent US9783536B2, “Nitrogen-containing heterocyclic compound or salt thereof” (FUJIFILM Corporation, priority 2013, dated 2017)
Like-named read-outs stand apart in the source and are kept apart here. Blank lines part the entries; values can stand above or below the compound they belong to.

How the values were obtained:
[1] = target: T1, GST fusion human ERK2 protein (Homo sapiens, UniProt P28482); assay: ERK2 enzyme assay (2); type: biochemical; conditions: read-out: ERK2 enzyme inhibitory activity (2)
T1 construct: purchased Carna Biosciences, Inc; host or cells: E. coli expression system
T1 sequence (P28482 whole entry, the tested form may be a part): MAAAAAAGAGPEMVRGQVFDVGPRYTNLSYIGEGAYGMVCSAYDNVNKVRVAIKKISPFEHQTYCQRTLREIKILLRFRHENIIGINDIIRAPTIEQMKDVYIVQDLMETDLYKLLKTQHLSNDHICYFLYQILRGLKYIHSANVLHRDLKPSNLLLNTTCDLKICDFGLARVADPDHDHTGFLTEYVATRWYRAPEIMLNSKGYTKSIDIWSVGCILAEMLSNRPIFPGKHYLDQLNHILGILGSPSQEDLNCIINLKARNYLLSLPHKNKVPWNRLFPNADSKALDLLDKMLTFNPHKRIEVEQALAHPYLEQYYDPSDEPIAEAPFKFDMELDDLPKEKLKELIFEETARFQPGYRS
Description: In an ERK2 enzyme assay, GLUTATHIONE S-TRANSFERASE (GST) FUSION HUMAN ERK2 PROTEIN (manufactured by Carna Biosciences, Inc.), which was produced by using an E. coli expression system, was used.
12 μL of a reaction liquid (1.25 nmol/L ERK2, 100 mmol/L Hepes, 10 mmol/L MgCl2, 1.5 mmol/L DTT, 0.003% Brij35, pH 7.5) including ERK2 protein and a test compound having a predetermined concentration was allowed to stand at room temperature for 15 minutes. Then, 3 μL of a mixture liquid of FL-PEPTIDE8 (5-FAM-IPTSPITTTYFFFKKK-COOH) (manufactured by Caliper Life Sciences), which is substrate peptide, and ATP (manufactured by Sigma-Aldrich Co. LLC.) was added thereto such that the final concentrations thereof became 4.25 μmol/L and 1 mmol/L, respectively, and an enzyme reaction was performed by allowing to stand at 25° C. for 120 minutes.
After the reaction, the enzyme reaction was stopped by adding 30 μL of a reaction stopper liquid (100 mmol/L HEPES, 11.2 mmol/L EDTA, 5.6% Brij35, pH 7.5) including a 0.5% COATING REAGENT 8 (trade name, manufactured by Perkin Elmer Inc.) thereto. Then, phosphorylated peptide and non-phosphorylated peptide were separated using LABCHIP EZ READER (trade name, manufactured by Caliper Life Sciences), and the porportion of the phosphorylated peptide was quantified.
(§1) The inhibitory activities of the compounds were evaluated using IC50 (50% inhibitory concentration). The IC50 was calculated using XLFIT (trade name, manufactured by ID Business Solutions).

human PI3Kα protein = target: T2, human PI3Kα protein (Homo sapiens, UniProt P42336); assay: PI3Kα enzyme assay (ADP-Glo); type: biochemical; conditions: read-out: PI3Kα enzyme inhibitory activity
T2 construct: purchased Carna Biosciences, Inc; host or cells: baculovirus expression system
T2 sequence (P42336 whole entry): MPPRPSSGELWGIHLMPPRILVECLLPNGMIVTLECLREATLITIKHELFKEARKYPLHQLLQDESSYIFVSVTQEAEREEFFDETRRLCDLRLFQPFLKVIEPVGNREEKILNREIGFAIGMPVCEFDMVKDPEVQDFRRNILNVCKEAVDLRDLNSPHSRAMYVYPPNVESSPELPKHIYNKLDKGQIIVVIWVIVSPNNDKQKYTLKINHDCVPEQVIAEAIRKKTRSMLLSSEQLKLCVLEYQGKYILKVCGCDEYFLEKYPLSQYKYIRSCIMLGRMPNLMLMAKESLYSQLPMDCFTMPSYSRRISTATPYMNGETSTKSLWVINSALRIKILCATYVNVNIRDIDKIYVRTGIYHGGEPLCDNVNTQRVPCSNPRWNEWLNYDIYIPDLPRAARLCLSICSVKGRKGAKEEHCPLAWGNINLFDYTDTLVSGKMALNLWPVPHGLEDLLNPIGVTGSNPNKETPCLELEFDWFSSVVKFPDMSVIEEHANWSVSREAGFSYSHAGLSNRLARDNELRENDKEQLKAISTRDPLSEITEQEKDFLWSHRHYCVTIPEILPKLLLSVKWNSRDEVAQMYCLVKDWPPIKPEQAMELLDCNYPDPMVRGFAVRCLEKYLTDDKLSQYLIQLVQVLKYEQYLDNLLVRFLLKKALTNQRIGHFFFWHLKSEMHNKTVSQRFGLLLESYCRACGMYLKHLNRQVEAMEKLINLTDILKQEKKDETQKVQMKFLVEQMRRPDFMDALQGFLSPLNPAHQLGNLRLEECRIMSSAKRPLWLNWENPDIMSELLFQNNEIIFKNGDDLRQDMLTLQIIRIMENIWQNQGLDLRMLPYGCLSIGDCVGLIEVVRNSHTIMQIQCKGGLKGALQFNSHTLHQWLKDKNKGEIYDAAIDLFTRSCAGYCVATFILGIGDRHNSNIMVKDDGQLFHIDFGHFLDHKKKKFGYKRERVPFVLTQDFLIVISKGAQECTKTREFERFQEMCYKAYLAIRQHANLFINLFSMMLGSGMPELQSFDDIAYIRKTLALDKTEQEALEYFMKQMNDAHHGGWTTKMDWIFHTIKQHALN
T2 sequence (P27986 whole entry partner): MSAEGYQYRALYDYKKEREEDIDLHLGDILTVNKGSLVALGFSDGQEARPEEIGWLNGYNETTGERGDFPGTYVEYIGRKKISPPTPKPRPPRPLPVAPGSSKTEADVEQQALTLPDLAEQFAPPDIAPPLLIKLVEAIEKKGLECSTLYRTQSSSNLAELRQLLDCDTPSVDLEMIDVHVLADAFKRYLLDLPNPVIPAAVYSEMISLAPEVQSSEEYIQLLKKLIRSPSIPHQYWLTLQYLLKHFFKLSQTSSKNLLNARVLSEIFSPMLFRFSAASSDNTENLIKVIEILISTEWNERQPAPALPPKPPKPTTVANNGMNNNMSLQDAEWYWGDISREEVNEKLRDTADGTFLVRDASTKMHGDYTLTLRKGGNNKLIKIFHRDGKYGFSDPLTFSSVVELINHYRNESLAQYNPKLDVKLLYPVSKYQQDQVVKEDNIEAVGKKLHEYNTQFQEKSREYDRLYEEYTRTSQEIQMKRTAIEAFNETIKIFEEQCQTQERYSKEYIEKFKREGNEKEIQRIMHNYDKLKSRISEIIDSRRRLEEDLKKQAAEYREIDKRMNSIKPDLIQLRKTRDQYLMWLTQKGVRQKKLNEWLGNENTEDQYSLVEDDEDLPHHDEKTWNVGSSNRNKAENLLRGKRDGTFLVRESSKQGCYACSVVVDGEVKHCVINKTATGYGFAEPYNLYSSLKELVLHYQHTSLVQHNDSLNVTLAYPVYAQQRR
Description: In a PI3Kα enzyme assay, a product (manufactured by Carna Biosciences, Inc.) obtained by biotinylating a human PI3Kα protein produced by using a baculovirus expression system was used. In addition, in the detection of enzyme activity, ADP-GLO KINASE ASSAY (trade name, manufactured by PROMEGA Corporation) was used.
10 μL of a reaction liquid (4.5 nmol/L PI3Kα, 40 mmol/L Tris-HCl, 20 mmol/L MgCl2, 0.1% BSA, pH 7.5) including the human PI3Kα protein and a test compound having a predetermined concentration was allowed to stand at room temperature for 15 minutes. Then, 5 μL of a mixture liquid of L-α-phosphatidylinositol 4,5-diphosphate (PIP2) (manufactured by Sigma-Aldrich Co. LLC.) and ATP (manufactured by Sigma-Aldrich Co. LLC.), which are substrates, was added thereto such that final concentrations thereof became 50 μmol/L and 100 μmol/L, respectively, and an enzyme reaction was performed by allowing to stand at 25° C. for 60 minutes.
After the reaction, the enzyme reaction was stopped by adding 15 μL of an ADP-GLO REAGENT (trade name, manufactured by PROMEGA Corporation) thereto and allowing to stand at room temperature for 60 minutes. Then, 30 μL of a KINASE DETECTION REAGENT (trade name, manufactured by PROMEGA Corporation) was added thereto, followed by allowing to stand at room temperature for 40 minutes, and ADP produced by the enzyme reaction was quantified by emission intensity.
ENVISION (trade name, manufactured by Perkin Elmer Inc.) was used for the measurement of the emission intensity.
as §1

[2] = 4.5 nmol/L PI3Kα, PIP2 50 μmol/L, ATP 100 μmol/L

- IC50 ([1]; ERK2 enzyme assay (2)): < 1 µM
- IC50 (human PI3Kα protein): < 1 µM
Compound: CC(C)c1cnnc(Nc2ccc3ncc(-c4cn(C)nc4-c4ccnnc4)cc3n2)c1 [Example 0843, N-(5-isopropylpyridazin-3-yl)-7-(1-methyl-3-(pyridazin-4-yl)-1H-pyrazol-4-yl)-1,5-naphthyridine-2-amine]

- IC50 ([1]; ERK2 enzyme assay (2)): < 1 µM
- IC50 (human PI3Kα protein): < 1 µM
Compound: CC(C)c1cnnc(Nc2ccc3ncc(-c4cnn(CCCN5CCN(c6ccccn6)CC5)c4)cc3n2)c1 [Example 0444]

- IC50 ([1]; ERK2 enzyme assay (2)): < 1 µM
- IC50 (human PI3Kα protein): < 1 µM
Compound: CC(=O)N1CCCC(Cn2cc(-c3cnc4ccc(Nc5cc(C(C)C)cnn5)nc4c3)cn2)C1 (centres unmarked) [Example 0548]

- IC50 ([1]; ERK2 enzyme assay (2)): < 1 µM
- IC50 (human PI3Kα protein): < 1 µM
Compound: COc1cnnc(Nc2ccc3ncc(-c4cnn(CCCN5CCOCC5)c4)cc3n2)c1 [Example 0496, N-(5-methoxypyridazin-3-yl)-7-(1-(3-morpholinopropyl)-1H-pyrazol-4-yl)-1,5-naphthyridine-2-amine]

- IC50 ([1]; ERK2 enzyme assay (2)): < 1 µM
- IC50 (human PI3Kα protein): 1 to 10 µM
Compound: CC(C)c1cnnc(Nc2ccc3ncc(NC4CN(C(=O)OC(C)(C)C)C4)cc3n2)c1 [Example 0891]

- IC50 ([1]; ERK2 enzyme assay (2)): < 1 µM
- IC50 (human PI3Kα protein): 1 to 10 µM
Compound: CC(C)c1cnnc(Nc2ccc3ncc(-c4cccn(C)c4=O)cc3n2)c1 [Example 0595, 3-(6-((5-Isopropylpyridazin-3-yl)amino)-1,5-naphthyridin-3-yl)-1-methylpyridin-2(1H)-one]

- IC50 (human PI3Kα protein): < 1 µM
Compound: Cc1ccnc(Nc2ccc3ncc(-c4cnn(C)c4)cc3n2)c1 [Example 0546]

- IC50 ([1]; ERK2 enzyme assay (2)): < 1 µM
- IC50 (human PI3Kα protein): < 1 µM
Compound: CCCn1cc(-c2cnc3ccc(Nc4cc(C(C)C)cnn4)nc3c2)cn1 [Example 0441]

- IC50 (human PI3Kα protein; [2]): < 1 µM
Compound: CC(C)c1nnc(Nc2ccc3nccc(Nc4ccccn4)c3n2)s1 [Example 0005]

- IC50 (human PI3Kα protein): 1 to 10 µM
Compound: Cc1ccc(S(=O)(=O)NC2CN(c3cnc4ccc(Nc5cc(C(C)C)cnn5)nc4c3)C2)cc1 [Example 0866]

- IC50 ([1]; ERK2 enzyme assay (2)): < 1 µM
Compound: Cn1cc(-c2cnc3ccc(Nc4cc(-c5ccncc5)cnn4)nc3c2)cn1 [Example 0763]

- IC50 (human PI3Kα protein): < 1 µM
Compound: CC(C)c1cnnc(Nc2ccc3ncc(-c4cn(C)nc4-c4ccnc(N(C)C)c4)cc3n2)c1 [Example 0753, 7-(3-(2-(Dimethylamino)pyridin-4-yl)-1-methyl-1H-pyrazol-4-yl)-N-(5-isopropylpyridazin-3-yl)-1,5-naphthyridine-2-amine]

- IC50 ([1]; ERK2 enzyme assay (2)): 1 to 10 µM
Compound: CC(C)c1cnnc(Nc2ccc3ncc(C(=O)Nc4ccccc4)cc3n2)c1 [Example 0668]

- IC50 ([1]; ERK2 enzyme assay (2)): 1 to 10 µM
Compound: CC(C)c1cnnc(Nc2ccc3ncc(C(=O)NCc4ccccc4)cc3n2)c1 [Example 0647, N-benzyl-6-((5-isopropylpyridazin-3-yl)amino)-1,5-naphthyridine-3-carboxamide]

- IC50 (human PI3Kα protein): 10 to 50 µM
Compound: Cn1cc(-c2cnc3ccc(Nc4ccccc4N)nc3c2)cn1 [Example 0675, N^1-(7-(1-methyl-1H-pyrazol-4-yl)-1,5-naphthyridin-2-yl)benzene-1,2-diamine]

- IC50 [1]: 10 to 50 µM
Compound: CC(C)c1cnnc(Nc2ccc3ncc(-c4cnn(C)c4)c(O)c3n2)c1 [Example 0915, 6-((5-Isopropylpyridazin-3-yl)amino)-3-(1-methyl-1H-pyrazol-4-yl)-1,5-naphthyridine-4-ol]

Second part, the compound before the results:

Compound: CC(C)c1cnnc(Nc2ccc3ncc(-c4cn(C)nc4NC4CN(C)C4)cc3n2)c1 [Example 0827, N-(5-isopropylpyridazin-3-yl)-7-(1-methyl-3-((1-methylazetidin-3-yl)amino)-1H-pyrazol-4-yl)-1,5-naphthyridine-2-amine]
- IC50 ([1]; ERK2 enzyme assay (2)): < 1 µM
- IC50 (human PI3Kα protein): < 1 µM

Compound: CC(C)c1cnnc(Nc2ccc3ncc(-c4cn(C)nc4N4CCOCC4)cc3n2)c1 [Example 0844]
- IC50 ([1]; ERK2 enzyme assay (2)): < 1 µM
- IC50 (human PI3Kα protein): < 1 µM

Compound: Cc1ccncc1-c1cnc2ccc(Nc3cc(C(C)C)cnn3)nc2c1 [Example 0600]
- IC50 ([1]; ERK2 enzyme assay (2)): < 1 µM
- IC50 (human PI3Kα protein): 1 to 10 µM

Compound: CCC(CC)c1cnnc(Nc2ccc3ncc(-c4cnn(C)c4)cc3n2)c1 [Example 0585]
- IC50 ([1]; ERK2 enzyme assay (2)): < 1 µM
- IC50 (human PI3Kα protein): < 1 µM

Compound: CC(C)c1cnnc(Nc2ccc3ncc(-c4cn(C)nc4-c4ccccc4)cc3n2)c1 [Example 0579]
- IC50 ([1]; ERK2 enzyme assay (2)): < 1 µM
- IC50 (human PI3Kα protein): < 1 µM

Compound: COc1c(-c2cnn(C)c2)cnc2ccc(Nc3cc(C(C)C)cnn3)nc12 [Example 0914, N-(5-isopropylpyridazin-3-yl)-8-methoxy-7-(1-methyl-1H-pyrazol-4-yl)-1,5-naphthyridine-2-amine]
- IC50 [1]: < 1 µM
- IC50 (human PI3Kα protein): < 1 µM

Compound: CC(C)c1cnnc(Nc2ccc3ncc(-c4cnn(CCCN5CC(C(=O)O)C5)c4)cc3n2)c1 [Example 0666]
- IC50 ([1]; ERK2 enzyme assay (2)): < 1 µM
- IC50 (human PI3Kα protein): < 1 µM

Compound: CC(=O)N1CC=C(c2cnc3ccc(Nc4cc(C(C)C)cnn4)nc3c2)CC1 [Example 0882, 1-(4-(6-((5-isopropylpyridazin-3-yl)amino)-1,5-naphthyridin-3-yl)-5,6-dihydropyridine-1(2H)-yl)ethanone]
- IC50 ([1]; ERK2 enzyme assay (2)): < 1 µM
- IC50 (human PI3Kα protein): < 1 µM

Compound: COCC(C)(C)c1cnnc(Nc2ccc3ncc(-c4cnn(C)c4)cc3n2)c1 [Example 0562]
- IC50 ([1]; ERK2 enzyme assay (2)): < 1 µM
- IC50 (human PI3Kα protein): < 1 µM

Compound: CC(C)c1cnnc(Nc2ccc3ncc(-c4cnn(CCCN5CC(Oc6ccccc6)C5)c4)cc3n2)c1 [Example 0715, N-(5-isopropylpyridazin-3-yl)-7-(1-(3-(3-phenoxyazetidin-1-yl)propyl)-1H-pyrazol-4-yl)-1,5-naphthyridine-2-amine]
- IC50 ([1]; ERK2 enzyme assay (2)): < 1 µM
- IC50 (human PI3Kα protein): < 1 µM

Compound: Cn1cc(-c2cnc3ccc(Nc4cc(-c5ccccc5)cnn4)nc3c2)cn1 [Example 0570]
- IC50 ([1]; ERK2 enzyme assay (2)): < 1 µM

Compound: Cn1cc(-c2cnc3ccc(Nc4ccncn4)nc3c2)cn1 [Example 0775, 7-(1-Methyl-1H-pyrazol-4-yl)-N-(pyrimidin-4-yl)-1,5-naphthyridine-2-amine]
- IC50 (human PI3Kα protein): < 1 µM

Compound: COc1cncc(Nc2cnc3ccc(Nc4cncc(OC)c4)nc3c2)c1 [Example 0155, N^2,N^7-bis(5-methoxypyridin-3-yl)-1,5-naphthyridine-2,7-diamine]
- IC50 (human PI3Kα protein; [2]): 1 to 10 µM

Compound: Cn1cc(-c2cnc3ccc(Nc4cccc(N)c4)nc3c2)cn1 [Example 0677, N^1-(7-(1-methyl-1H-pyrazol-4-yl)-1,5-naphthyridin-2-yl)benzene-1,3-diamine]
- IC50 (human PI3Kα protein): 1 to 10 µM

Compound: CCOC(=O)c1csc(Nc2ccc3ncc(-c4cnn(C)c4)cc3n2)n1 [Example 0034, ethyl 2-((7-(1-methyl-1H-pyrazol-4-yl)-1,5-naphthyridin-2-yl)amino)thiazole-4-carboxylate]
- IC50 (human PI3Kα protein; [2]): 1 to 10 µM

Compound: Cc1nccn1-c1cnc2ccc(Nc3cc(C(C)C)cnn3)nc2c1 [Example 0513]
- IC50 ([1]; ERK2 enzyme assay (2)): < 1 µM

Compound: Cc1nnc(Sc2ccc3ncc(-c4cnn(C)c4)cc3n2)s1 [Example 0047, 2-methyl-5-((7-(1-methyl-1H-pyrazol-4-yl)-1,5-naphthyridin-2-yl)thio)-1,3,4-thiadiazole]
- IC50 (human PI3Kα protein; [2]): < 1 µM

Compound: Cn1cc(-c2cnc3ccc(Nc4nccn4C)nc3c2)cn1 [Example 0516, N-(1-methyl-1H-imidazol-2-yl)-7-(1-methyl-1H-pyrazol-4-yl)-1,5-naphthyridine-2-amine]
- IC50 (human PI3Kα protein): 10 to 50 µM

Compound: Cn1cc(-c2cnc3ccc(Nc4cc(C(C)(C)C)on4)nc3c2)cn1 [Example 0776, 5-(tert-Butyl)-N-(7-(1-methyl-1H-pyrazol-4-yl)-1,5-naphthyridin-2-yl)isoxazole-3-amine]
- IC50 (human PI3Kα protein): 10 to 50 µM

Compound: CC(C)c1cnnc(Nc2ccc3ncc(C(=O)N(C)C)cc3n2)c1 [Example 0643]
- IC50 ([1]; ERK2 enzyme assay (2)): 10 to 50 µM
